Values of other authors as cited in patent publication US11707455B2, “Pharmaceutical composition containing dabigatran etexilate and preparation method thereof” (SHANGHAI WD PHARMACEUTICAL CO., LTD, priority 2018, dated 2023).

Columns and labels:
[1] = pH 1
[2] = in vivo

CCCCCCOC(=O)N=C(N)c1ccc(NCc2nc3cc(C(=O)N(CCC(=O)OCC)c4ccccn4)ccc3n2C)cc1.CS(=O)(=O)O [DEM]
maximum solubility [1]: greater than 80 mg/mL
Cmax variation range [2]: ≤ 5 folds
